The record followed here is patent publication US20200170244A1, “METHODS FOR PRESERVING, TRANSPORTING AND STORING LIVING BIOLOGICAL MATERIALS” (priority 2013, published 2020).

“Also recorded” adds a separate entry of the source.

This test concerns keratinocytes. As to the kind of experiment: Effect of vanadium compounds on proliferation of keratinocytes (hair follicle culture, cell count). The test is classed as cell-based. Conditions: 14 days at 31° C.; for amount of proliferated keratinocytes (number of cells per ml of culture medium): 1 mg/ml in basic SFK growth serum, relative to control SFK without vanadium compound. The method, then: Method: The hair follicles were transferred to a 24-well culture disk containing dSFK with […] penicillin (Life Technologies B.V. Breda, The Netherlands) and 0.25 μg/ml streptomycin (Life Technologies B.V. Breda, The Netherlands), and placed for 14 days in a culture medium at 31° C. in a humidified atmosphere containing 5% CO2. Three different culture medium were used: • Treatment group oxovanadium (OVAN): The culture medium is a composition comprising a basic SFK growth serum (purchased from the supplier SFK, Enschede The Netherlands) supplemented with either 1 mg/ml of OVAN. • Treatment group bis (maltolato) oxovanadium (BMOV): The culture medium is a composition comprising a basic SFK growth serum (purchased from the supplier SFK, Enschede The Netherlands) supplemented with either 1 mg/ml of BMOV. • Control group: The control situation consists of a composition comprising the SFK basic growth serum but without the vanadium compounds (i.e. OVAN or BMOV).
The respective culture media were carefully removed every three days and replaced by fresh culture media. The cells remained attached to the hair follicles during this culture period. After 14 days the culture medium was removed and replaced by a 0.5 mg/ml trypsin, 0.2 mg/ml EDTA (ethylene diaminetetraacetic acid) solution (Life Technologies B.V. Breda, The Netherlands), and incubated for 5 minutes at 37° C. in this medium. After this incubation period clusters of cells were released from the hair follicles. These were harvested by centrifugation at 300 g at 4° C. for 5 minutes in a Eppendorf 5804R Centrifuge (VWR International, The Netherlands). Number of cells were counted and expressed as amount of proliferated cells per ml of culture medium.

For the compound oxovanadium, the “amount of proliferated keratinocytes (number of cells per ml of culture medium)” value was “significantly increased; also recorded: enhanced proliferation”. For the compound `Cc1occc(=O)c1[O-].Cc1occc(=O)c1[O-].[O]=[V+2]` [BMOV, bis(maltolato)oxovanadium], the “amount of proliferated keratinocytes (number of cells per ml of culture medium)” value is recorded as “significantly increased; also recorded: enhanced proliferation”. Moreover, the “proliferated keratinocytes, BMOV compared with OVAN” value (1 mg/ml each in basic SFK growth serum) was “more potent than OVAN; also recorded: greater number of proliferated cells relative to treatment with OVAN”.
